According to PubChem BioAssay (NCI):
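Values below derive from 48-hour exposures of cells grown in 96-well plates, with endpoints linearly interpolated between the two concentrations bracketing the appropriate inhibition level. The concentration for 50% growth inhibition is given as GI50. TGI: concentration producing complete growth inhibition.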

Tests used:
Assay in all cases: growth of human tumour cells (NCI), 48 h
[1] = tested on: RXF 393 renal
[2] = tested on: IGROV1 ovarian
[3] = tested on: NCI-H23 lung
[4] = tested on: COLO 205 colon
[5] = tested on: LOX IMVI melanoma
[6] = tested on: SW-620 colon
[7] = tested on: HOP-62 NSCLC
[8] = tested on: MCF7 breast
[9] = tested on: HOP-92 NSCLC
[10] = tested on: A549 NSCLC
[11] = tested on: UACC-257 melanoma
[12] = tested on: CCRF-CEM leukemia
[13] = tested on: SF-539 CNS
[14] = tested on: HS 578T breast
[15] = tested on: MDA-MB-231 breast
[16] = tested on: SK-MEL-28 melanoma
[17] = tested on: U251 CNS
[18] = tested on: SF-295 CNS
[19] = tested on: SN12C renal
[20] = tested on: BT-549 breast
[21] = tested on: M14 melanoma
[22] = tested on: UACC-62 melanoma
[23] = tested on: ACHN renal
[24] = tested on: KM12 colon
[25] = tested on: SR leukemia
[26] = tested on: OVCAR-5 ovarian
[27] = tested on: SK-OV-3 ovarian
[28] = tested on: DU-145 prostate
[29] = tested on: NCI-H226 lung
[30] = tested on: OVCAR-3 ovarian
[31] = tested on: NCI/ADR-RES ovarian
[32] = tested on: HCC-2998 colon
[33] = tested on: PC-3 prostate
[34] = tested on: NCI-H460 lung
[35] = tested on: SF-268 CNS
[36] = tested on: HL-60(TB) leukemia
[37] = tested on: SK-MEL-5 melanoma
[38] = tested on: SK-MEL-2 melanoma
[39] = tested on: NCI-H522 lung
[40] = tested on: T-47D breast
[41] = tested on: CAKI-1 renal
[42] = tested on: A498 renal
[43] = tested on: TK-10 renal
[44] = tested on: SNB-75 CNS
[45] = tested on: MALME-3M melanoma
[46] = tested on: MDA-MB-435
[47] = tested on: OVCAR-4 ovarian
[48] = tested on: OVCAR-8 ovarian
[49] = tested on: K-562 leukemia
[50] = tested on: 786-0 renal
[51] = tested on: EKVX NSCLC
[52] = tested on: SNB-19 CNS
[53] = tested on: UO-31 renal
[54] = tested on: RPMI-8226 leukemia
[55] = tested on: HCT-116 colon
[56] = tested on: HCT-15 colon
[57] = tested on: HT29 colon
[58] = tested on: MOLT-4 leukemia

O=[N+]([O-])/C=C/c1ccc2ccccc2c1
TGI [1]: 5.72 µM | TGI [2]: > 21.8 µM | TGI [3]: > 23.5 µM | TGI [4]: 5.97 µM | TGI [5]: 7.81 µM | TGI [6]: 3.99 µM | TGI [7]: > 51.5 µM | TGI [8]: > 100 µM | TGI [9]: 21.1 µM | TGI [10]: > 58.5 µM | TGI [11]: 6.63 µM | TGI [12]: > 100 µM | TGI [13]: > 100 µM | TGI [14]: > 61.8 µM | TGI [15]: 13.4 µM | TGI [16]: 4.65 µM | TGI [17]: 3.08 µM | TGI [18]: 19.4 µM | TGI [19]: 22.7 µM | TGI [20]: 7.8 µM | TGI [21]: > 23.7 µM | TGI [22]: 32.8 µM | TGI [23]: 4.17 µM | TGI [24]: 3.09 µM | TGI [25]: > 100 µM | TGI [26]: > 30.1 µM | TGI [27]: 9.22 µM | TGI [28]: > 35.9 µM | TGI [29]: 21.3 µM | TGI [30]: > 100 µM | TGI [31]: > 28 µM | TGI [32]: 0.678 µM | TGI [33]: 14 µM | TGI [34]: > 23.5 µM | TGI [35]: > 35.6 µM | TGI [36]: 7.8 µM | TGI [37]: 13.3 µM | TGI [38]: > 61.6 µM | TGI [39]: 33.1 µM | TGI [40]: 2.13 µM | TGI [41]: 25.7 µM | TGI [42]: 25.7 µM | TGI [43]: 25.8 µM | TGI [44]: 5.17 µM | TGI [45]: 33.9 µM | TGI [46]: 4.58 µM | TGI [47]: 26 µM | TGI [48]: > 21.2 µM | TGI [49]: 9.42 µM | TGI [50]: > 20.4 µM | TGI [51]: > 55 µM | TGI [52]: 5.13 µM | TGI [53]: 35.1 µM | TGI [54]: > 100 µM

COC(=O)c1ccc(NC(N)=NCCC(C)(C)c2ccc(C(F)(F)F)cc2)nc1
GI50 [1]: 2.18 µM | TGI [1]: 5.06 µM | GI50 [2]: 1.77 µM | TGI [2]: 3.82 µM | GI50 [55]: 1.6 µM | TGI [55]: 3.3 µM | GI50 [3]: 2.15 µM | TGI [3]: 11.5 µM | GI50 [4]: 1.7 µM | TGI [4]: 3.41 µM | GI50 [5]: 1.57 µM | TGI [5]: 2.98 µM | GI50 [6]: 2.03 µM | TGI [6]: 4.19 µM | GI50 [7]: 6.16 µM | TGI [7]: 22 µM | GI50 [8]: 1.7 µM | TGI [8]: 3.87 µM | GI50 [9]: 5.54 µM | TGI [9]: 23.8 µM | GI50 [10]: 4.83 µM | TGI [10]: 17.2 µM | GI50 [11]: 2.03 µM | TGI [11]: 4.34 µM | GI50 [12]: 3.01 µM | TGI [12]: 11 µM | GI50 [56]: 1.99 µM | TGI [56]: 5.12 µM | GI50 [13]: 1.74 µM | TGI [13]: 3.53 µM | GI50 [14]: 2.98 µM | TGI [14]: 9.9 µM | GI50 [15]: 1.76 µM | TGI [15]: 3.34 µM | GI50 [16]: 1.64 µM | TGI [16]: 3.23 µM | GI50 [17]: 2.01 µM | TGI [17]: 3.89 µM | GI50 [18]: 1.63 µM | TGI [18]: 3.51 µM | GI50 [19]: 1.7 µM | TGI [19]: 3.25 µM | GI50 [20]: 4.85 µM | TGI [20]: 18.1 µM | GI50 [21]: 1.7 µM | TGI [21]: 3.8 µM | GI50 [22]: 1.58 µM | TGI [22]: 3.07 µM | GI50 [23]: 1.91 µM | TGI [23]: 4.85 µM | GI50 [24]: 2.65 µM | TGI [24]: 9.12 µM | GI50 [25]: 0.892 µM | TGI [25]: 2.91 µM | GI50 [26]: 2.98 µM | TGI [26]: 13.5 µM | GI50 [27]: 6.63 µM | TGI [27]: 19.2 µM | GI50 [28]: 3.44 µM | TGI [28]: 13.9 µM | GI50 [29]: 3.33 µM | TGI [29]: 18.8 µM | GI50 [30]: 1.78 µM | TGI [30]: 4.08 µM | GI50 [31]: 2.35 µM | TGI [31]: 6.03 µM | GI50 [32]: 1.79 µM | TGI [32]: 3.64 µM | GI50 [33]: 3.91 µM | TGI [33]: 15.5 µM | GI50 [34]: 2.06 µM | TGI [34]: 4.56 µM | GI50 [35]: 6.23 µM | TGI [35]: 24.8 µM | GI50 [36]: 1.74 µM | TGI [36]: 3.71 µM | GI50 [37]: 1.56 µM | TGI [37]: 2.99 µM | GI50 [38]: 3.22 µM | TGI [38]: 10.5 µM | GI50 [39]: 3.1 µM | TGI [39]: 13 µM | GI50 [40]: 1.62 µM | TGI [40]: 4.71 µM | GI50 [41]: 2.8 µM | TGI [41]: 14.2 µM | GI50 [57]: 2.55 µM | TGI [57]: 6.83 µM | GI50 [42]: 2.64 µM | TGI [42]: 14.7 µM | GI50 [43]: 4.75 µM | TGI [43]: 17.6 µM | GI50 [44]: 5.51 µM | TGI [44]: 19.8 µM | GI50 [45]: 1.7 µM | TGI [45]: 3.37 µM | GI50 [46]: 1.83 µM | TGI [46]: 4.16 µM | GI50 [47]: 1.71 µM | TGI [47]: 9.18 µM | GI50 [48]: 2.04 µM | TGI [48]: 4.63 µM | GI50 [49]: 1.3 µM | TGI [49]: 3.72 µM | GI50 [50]: 7.64 µM | TGI [50]: 28.2 µM | GI50 [58]: 1.88 µM | TGI [58]: 7.33 µM | GI50 [52]: 3.3 µM | TGI [52]: 11.5 µM | GI50 [53]: 2.9 µM | TGI [53]: 15.6 µM | GI50 [54]: 1.65 µM | TGI [54]: 4.26 µM
